Measured values published in US20230096766A1, “AMINO ACID HAVING FUNCTIONAL GROUP CAPABLE OF INTERMOLECULAR HYDROGEN BONDING, PEPTIDE COMPOUND CONTAINING SAME AND METHOD FOR PRODUCTION THEREOF” (Chugai Seiyaku Kabushiki Kaisha, priority 2018, published 2023).
*1 amine or outer side, *2 acyl side, *3 side chain or, on linkers, in order; H or OH if unused. Where a SMILES comes first, the peptide text is derived from it. Bridges are numbered along the chain shown (N, C = ends). [ ]: non-standard residue; d: D form. The star is where a group is joined. ξ: configuration not given here. X11 = CNC(=O)c1ccc(CCN(CC(=O)[*:2])[*:1])cc1OC; NMePhe(3-Cl) = CN[C@@H](Cc1cccc(Cl)c1)C(=O)O; Tyr(3-F) = N[C@@H](Cc1ccc(O)c(F)c1)C(=O)O; NMeW = CN[C@@H](Cc1c[nH]c2ccccc12)C(=O)O; NMehPhe = CN[C@@H](CCc1ccccc1)C(=O)O; Propyl(2,2-Me2,3-OH) = CC(C)(CO)C*; X6 = O=C([C@H](CCCCO)N[*:1])[*:2]; NMeF = CN[C@@H](Cc1ccccc1)C(=O)O; NMeGABA = CN(CCCC(=O)[*:2])[*:1]; NMeL = CN[C@@H](CC(C)C)C(=O)O; Propyl(2R-OH) = C[C@@H](O)C*; NMeV = CN[C@H](C(=O)O)C(C)C; NMeAbu = CC[C@H](NC)C(=O)O; NMeA = CN[C@@H](C)C(=O)O; Piperidide = C1CCN(*)CC1; CH2CONHMe = CNC(=O)C*; Me2NCH2CH2 = CN(C)CC*; NBuGly = CCCCNCC(=O)O; Isopentyl = CC(C)CC*; NPrGly = CCCNCC(=O)O; Propyl(3-OH) = OCCC*; ξS = NC(CO)C(=O)O; X3 = C[C@H](O)C*; Sar = CNCC(=O)O; tBu = CC(C)(C)*

Assay: in vitro
Conditions: human, Caco-2, Caco-2

Row | Compound | Papp [×10⁻⁶ cm/s]
1 | CCCCN1CC(=O)N(C)[C@@H](Cc2ccccc2)C(=O)N[C@@H](COCCN(C)C)C(=O)N(C)[C@@H](CC(C)C)C(=O)N[C@@H]([C@@H](C)O)C(=O)N(C)CC(=O)N(C)[C@@H](Cc2ccccc2)C(=O)N(C)[C@@H](CC)C(=O)N[C@@H](COCCC(C)C)C(=O)N(C)[C@@H](CC(C)C)C(=O)N[C@H](C(=O)N2CCCCC2)CC1=O [pd58] ([NBuGly][NMeF]S(Me2NCH2CH2)[NMeL]T[Sar][NMeF][NMeAbu]S(Isopentyl)[NMeL]D-Piperidide; lactam N-11) | 0.021

Same assay, conditions: human, Caco-2, Caco-2 (cm/sec)

Row | Compound | Papp [×10⁻⁶ cm/s]
2 | CC[C@H](C)[C@@H]1NC(=O)[C@H](CC(C)C)N(C)C(=O)CCCN(C)C(=O)C[C@@H](C(=O)N2CCCCC2)NC(=O)[C@H](CC(C)C)N(C)C(=O)[C@H](CC(C)C)N(C)C(=O)[C@H]([C@@H](C)O)NC(=O)[C@H](CC(C)C)N(C)C(=O)[C@H](COC[C@@H](C)O)NC(=O)[C@H](Cc2cccc(Cl)c2)N(C)C(=O)[C@H](Cc2ccccc2)N(C)C1=O [AP74] ([NMeGABA][NMeL]I[NMeF][NMePhe(3-Cl)]S(Propyl(2R-OH))[NMeL]T[NMeL][NMeL]D-Piperidide; lactam N-11) | 0.31
3 | CC[C@H]1C(=O)N[C@@H](CC(C)C)C(=O)N(C)[C@@H](CC(C)C)C(=O)N(C)[C@@H](Cc2ccccc2)C(=O)N[C@@H](CCCCO)C(=O)N(C)[C@@H](CCc2ccccc2)C(=O)N(C)[C@@H](CC(C)C)C(=O)N[C@@H]([C@@H](C)O)C(=O)N(C)CC(=O)N(C)[C@@H](CC(C)C)C(=O)N[C@H](C(=O)N2CCCCC2)CC(=O)N1C [Compound B06] ([NMeAbu]L[NMeL][NMeF][X6][NMehPhe][NMeL]T[Sar][NMeL]D-Piperidide; lactam N-11) | 0.39
4 | CCCN1CC(=O)N(C)[C@@H](CC(C)C)C(=O)N[C@@H](COCCC(C)C)C(=O)N(C)[C@@H](Cc2ccccc2)C(=O)N(C)[C@@H](CC(C)C)C(=O)N[C@H](C(=O)N2CCCCC2)CC(=O)N[C@H](C(C)C)C(=O)N(C)[C@@H](Cc2ccccc2)C(=O)N[C@@H](COC[C@H](C)O)C(=O)N(C)[C@@H](CC(C)C)C(=O)N[C@@H]([C@@H](C)O)C1=O [AP61] ([dV][NMeF]S(X3)[NMeL]T[NPrGly][NMeL]S(Isopentyl)[NMeF][NMeL]D-Piperidide; lactam N-11) | 0.51
5 | CC(C)C[C@H]1C(=O)N(C)[C@@H](Cc2c[nH]c3ccccc23)C(=O)N(C)[C@@H](Cc2ccccc2)C(=O)N[C@@H]([C@@H](C)O)C(=O)N(C)[C@@H](C)C(=O)N(C)[C@@H](CC(C)C)C(=O)N[C@H](C(=O)N2CCCCC2)CC(=O)N(C)[C@@H](C)C(=O)N(C)[C@@H](CC(C)C)C(=O)N(C)[C@@H](CC(C)C)C(=O)N[C@@H](C)C(=O)N1C [pd104] ([NMeA][NMeL][NMeL]A[NMeL][NMeW][NMeF]T[NMeA][NMeL]D-Piperidide; lactam N-11) | 0.025
6 | CC[C@H]1C(=O)N[C@@H]([C@@H](C)O)C(=O)N(CCc2ccc(C(=O)NC)c(OC)c2)CC(=O)N(C)[C@@H](CC(C)C)C(=O)N[C@@H](COC(C)(C)C)C(=O)N(C)[C@@H](CC(C)C)C(=O)N(C)[C@@H](CC(C)C)C(=O)N[C@H](C(=O)N2CCCCC2)CC(=O)N[C@H](C)C(=O)N(C)[C@@H](Cc2ccccc2)C(=O)N[C@@H](CC(C)C)C(=O)N1C [AP216] ([dA][NMeF]L[NMeAbu]T[X11][NMeL]S(tBu)[NMeL][NMeL]D-Piperidide; lactam N-11) | 0.99
7 | CC(C)C[C@@H]1NC(=O)[C@H](CCc2ccccc2)N(C)C(=O)[C@H](CCc2ccccc2)N(C)C(=O)[C@H](CCCCO)NC(=O)[C@H](C(C)C)N(C)C(=O)CCCN(C)C(=O)C[C@@H](C(=O)N2CCCCC2)NC(=O)[C@H](CC(C)C)N(C)C(=O)[C@H](CC(C)C)N(C)C(=O)[C@H]([C@@H](C)O)NC(=O)[C@H](CC(C)C)N(C)C1=O [Compound B03] ([NMeGABA][NMeV][X6][NMehPhe][NMehPhe]L[NMeL]T[NMeL][NMeL]D-Piperidide; lactam N-11) | 0.27
8 | CC(C)C[C@H]1C(=O)N[C@H](C(=O)N(C)[C@@H](Cc2ccccc2)C(=O)N[C@@H](C)C(=O)N2CCCCC2)CC(=O)N(C)[C@@H](C)C(=O)N[C@@H]([C@@H](C)O)C(=O)N(C)[C@@H](C)C(=O)N(C)[C@@H](CC(C)C)C(=O)N[C@@H](C(C)C)C(=O)N(C)[C@@H](Cc2ccccc2)C(=O)N[C@@H](Cc2ccccc2)C(=O)N1C [pd212] ([NMeA]T[NMeA][NMeL]V[NMeF]F[NMeL]D[NMeF]A-Piperidide; lactam N-9) | 1.4
9 | CC(C)C[C@H]1C(=O)N[C@H](C(=O)N2CCCCC2)CC(=O)N(C)CCCC(=O)N(C)[C@@H](CC(C)C)C(=O)N[C@@H](Cc2ccc(O)c(F)c2)C(=O)N(C)[C@@H](CC(C)C)C(=O)N(C)[C@@H](Cc2ccccc2)C(=O)N[C@@H](COC(C)(C)C)C(=O)N(C)[C@@H](CC(C)C)C(=O)N[C@@H]([C@@H](C)O)C(=O)N(C)CC(=O)N1C [pd114] ([NMeGABA][NMeL][Tyr(3-F)][NMeL][NMeF]S(tBu)[NMeL]T[Sar][NMeL]D-Piperidide; lactam N-11) | 0.17
10 | CC[C@H](C)[C@@H]1NC(=O)[C@H](CC(C)C)N(C)C(=O)CCCN(C)C(=O)C[C@@H](C(=O)N2CCCCC2)NC(=O)[C@H](CC(C)C)N(C)C(=O)[C@H](CC(C)C)N(C)C(=O)[C@H]([C@@H](C)O)NC(=O)[C@H](CC(C)C)N(C)C(=O)[C@H](COCCCO)NC(=O)[C@H](Cc2cccc(Cl)c2)N(C)C(=O)[C@H](Cc2ccccc2)N(C)C1=O [AP92] ([NMeGABA][NMeL]I[NMeF][NMePhe(3-Cl)]S(Propyl(3-OH))[NMeL]T[NMeL][NMeL]D-Piperidide; lactam N-11) | 0.18
11 | CC(C)C[C@@H]1NC(=O)[C@H](CC(C)C)N(C)C(=O)[C@H](C)N(C)C(=O)[C@@H](C(C)C)NC(=O)C[C@@H](C(=O)N2CCCCC2)NC(=O)[C@H]([C@@H](C)O)NC(=O)[C@H](C)N(C)C(=O)CN(C)C(=O)[C@H](CC(C)C)N(C)C(=O)[C@H](Cc2c[nH]c3ccccc23)NC(=O)[C@H](Cc2ccccc2)N(C)C1=O [pd100] ([dV][NMeA][NMeL]L[NMeF]W[NMeL][Sar][NMeA]TD-Piperidide; lactam N-11) | 0.11
12 | CC[C@H]1C(=O)N[C@@H](CC(C)C)C(=O)N(C)[C@@H](CC(C)C)C(=O)N(C)[C@@H](Cc2ccccc2)C(=O)NC(COCC(C)(C)CO)C(=O)N(C)[C@@H](Cc2ccccc2)C(=O)N(C)[C@@H](CC(C)C)C(=O)N[C@@H]([C@@H](C)O)C(=O)N(C)CC(=O)N(C)[C@@H](CC(C)C)C(=O)N[C@H](C(=O)N2CCCCC2)CC(=O)N1C (stereo partly drawn) [AP122] ([NMeAbu]L[NMeL][NMeF][ξS](Propyl(2,2-Me2,3-OH))[NMeF][NMeL]T[Sar][NMeL]D-Piperidide; lactam N-11) | 2.9

Same assay, conditions: human, Caco-2, Caco-2 (membrane permeability)

Row | Compound | Papp [×10⁻⁶ cm/s]
13 | CCCCN1CC(=O)N(C)[C@@H](Cc2ccccc2)C(=O)N[C@@H]([C@@H](C)CC)C(=O)N(C)[C@@H](CC(C)C)C(=O)N[C@@H]([C@@H](C)O)C(=O)N(CCC)CC(=O)N(C)[C@@H](Cc2ccccc2)C(=O)N(C)[C@@H](CC(C)C)C(=O)N[C@@H](COCC(=O)NC)C(=O)N(C)[C@@H](CC(C)C)C(=O)N[C@H](C(=O)N2CCCCC2)CC1=O [Compound I06] ([NBuGly][NMeF]I[NMeL]T[NPrGly][NMeF][NMeL]S(CH2CONHMe)[NMeL]D-Piperidide; lactam N-11) | 0.24
